Assay results: US10703755B2, “Substituted purine derivative” (SUMITOMO DAINIPPON PHARMA CO., LTD., priority 2016, dated 2020)

Target: human TLR7 (Homo sapiens (Human), UniProt Q9NYK1)
Experiment: Test for evaluating the inhibition of the activation of human TLR7 (SEAP reporter, TLR7/NF-κB/SEAPorter HEK293 cell)
Type: cell-based
Conditions: R-848 200 nmol/L; for IC50: SEAP reporter; for inhibitory effect against TLR7 in the test for evaluating inhibition of the activation of TLR7: SEAP activity, result in words
Summary of the method: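 The readout is secreted alkaline phosphatase under NF-κB response-element control in TLR7/NF-κB/SEAPorter HEK293 cells, which stably express full-length human TLR7. Cells were plated at 5×10^4 per well and grown overnight at 37° C, 5% CO2, in DMEM/10% FBS/blasticidin.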

Sequence of human TLR7 (Q9NYK1 27-1049): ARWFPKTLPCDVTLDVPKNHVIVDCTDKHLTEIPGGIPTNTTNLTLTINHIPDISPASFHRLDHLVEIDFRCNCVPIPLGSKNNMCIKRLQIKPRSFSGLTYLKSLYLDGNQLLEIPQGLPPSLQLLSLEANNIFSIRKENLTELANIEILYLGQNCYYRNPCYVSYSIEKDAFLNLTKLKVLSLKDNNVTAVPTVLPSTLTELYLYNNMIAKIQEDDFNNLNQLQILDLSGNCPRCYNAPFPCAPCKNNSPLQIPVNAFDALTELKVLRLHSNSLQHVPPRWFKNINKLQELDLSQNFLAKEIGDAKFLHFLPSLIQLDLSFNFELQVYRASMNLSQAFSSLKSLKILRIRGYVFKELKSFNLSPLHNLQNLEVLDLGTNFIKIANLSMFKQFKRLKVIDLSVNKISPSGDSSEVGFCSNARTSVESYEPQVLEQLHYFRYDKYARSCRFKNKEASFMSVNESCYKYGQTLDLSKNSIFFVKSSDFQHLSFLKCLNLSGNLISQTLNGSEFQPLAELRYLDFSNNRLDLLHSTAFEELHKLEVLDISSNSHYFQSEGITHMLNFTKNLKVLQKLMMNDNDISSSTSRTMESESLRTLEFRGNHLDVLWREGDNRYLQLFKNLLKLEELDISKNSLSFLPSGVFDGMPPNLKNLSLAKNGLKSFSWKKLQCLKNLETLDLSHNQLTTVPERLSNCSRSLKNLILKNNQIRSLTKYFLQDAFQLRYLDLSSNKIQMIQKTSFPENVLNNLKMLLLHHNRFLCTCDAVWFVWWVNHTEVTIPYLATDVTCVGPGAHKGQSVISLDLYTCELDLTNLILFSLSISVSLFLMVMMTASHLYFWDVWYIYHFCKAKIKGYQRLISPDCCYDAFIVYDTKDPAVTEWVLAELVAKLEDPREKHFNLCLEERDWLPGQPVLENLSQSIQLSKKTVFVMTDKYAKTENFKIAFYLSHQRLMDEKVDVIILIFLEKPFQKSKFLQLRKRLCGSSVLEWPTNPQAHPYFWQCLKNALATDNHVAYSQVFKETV

Row | Compound | IC50 [nM] | inhibitory effect against TLR7 in the test for evaluating inhibition of the activation of TLR7
1 | CCOc1nc(C)c2nc(-c3cncc(F)c3)n(Cc3ccc(C4CN5CCC4CC5)cn3)c2n1 (centres unmarked) [Example 370, 9-{[5-(1-Azabicyclo[2.2.2]oct-3-yl)pyridin-2-yl]methyl}-2-ethoxy-8-(5-fluoropyridin-3-yl)-6-methyl-9H-purine] | 117 | 
2 | COc1nc(C)c2nc(-c3cncc(F)c3)n(Cc3ccc([C@@H]4CN5CCC4CC5)cc3)c2n1 [Example 177, 9-{4-[(3R)-1-Azabicyclo[2.2.2]oct-3-yl]benzyl}-8-(5-fluoropyridin-3-yl)-2-methoxy-6-methyl-9H-purine] | 10 | 
3 | CCCCOc1nc(C)c2nc(-c3cncc(F)c3)n(Cc3ccc(CO)cc3)c2n1 [Example 79] | 3500 | 
4 | COc1nc(C)c2nc(-c3cncc(F)c3)n(Cc3ccc(O[C@@H]4C[C@H]5CC[C@@H](C4)N5C)cc3F)c2n1 [Example 418, 9-(2-fluoro-4-{[(3-exo)-8-methyl-8-azabicyclo[3.2.1]oct-3-yl]oxy}benzyl)-8-(5-fluoropyridin-3-yl)-2-methoxy-6-methyl-9H-purine] | 19 | potent inhibitory effect against TLR7
5 | COc1nc(C)c2nc(-c3ccc(C(N)=O)nc3)n(Cc3ccc(OC4CN5CCC4CC5)cc3F)c2n1 (centres unmarked) [Example 439] | 134 | 
6 | CCOc1nc(C)c2nc(-c3cncc(F)c3)n(Cc3ccc(C4CN5CCC4CC5)nc3C(F)(F)F)c2n1 (centres unmarked) [Example 381] | 1390 | 
7 | COc1nc(C)c2nc(-c3cncc(F)c3)n(Cc3ccc(C4CN5CCC4CC5)cc3F)c2n1 (centres unmarked) [Example 393, 9-[4-(1-azabicyclo[2.2.2]oct-3-yl)-2-fluorobenzyl]-8-(5-fluoropyridin-3-yl)-2-methoxy-6-methyl-9H-purine] |  | potent inhibitory effect against TLR7
8 | CCOc1nc(C)c2nc(-c3cncc(F)c3)n(Cc3cnc(C4CN5CCC4CC5)cc3OC)c2n1 (centres unmarked) [Example 374] | 1630 | 
9 | CCOc1nc(N)c2nc(-c3cncc(F)c3)n(Cc3ccc(C(=O)NCCN4CCCC4)cc3)c2n1 [Example 146] | 1700 | 
10 | CCCCOc1nc(N)c2nc(-c3ccc(N(C)C)cc3)n(Cc3ccccc3)c2n1 [Example 179] | 16200 | 
11 | CCOc1nc(C)c2nc(-c3cncc(F)c3)n(Cc3ccc(C4=CN5CCC4CC5)nc3C#N)c2n1 [Example 361] | 582 | 
12 | Cc1nc(N)c2nc(-c3cncc(F)c3)n(Cc3ccc(CN(C)C)cc3)c2n1 [Example 156, 9-{4-[(Dimethylamino)methyl]benzyl}-8-(5-fluoropyridin-3-yl)-2-methyl-9H-purine-6-amine] | 5000 | 
13 | CCOc1nc(C)c2nc(-c3cncc(F)c3)n(Cc3cnn(CC4CCCNC4)c3)c2n1 (centres unmarked) [Example 268] | 27 | 
14 | CCOc1nc(C)c2nc(-c3cncc(F)c3)n(Cc3ccc(C4CN5CCC4CC5)cc3C#N)c2n1 (centres unmarked) [Example 384] | 270 | 
15 | COCCOc1nc(N)c2nc(-c3cncc(F)c3)n(Cc3ccccc3)c2n1 [Example 25] | 3500 | 
16 | CCOc1nc(C)c2nc(-c3cncc(F)c3)n(Cc3ccc(CN4C[C@@H]5C[C@H]4CN5CC)cc3)c2n1 [Example 131, 2-ethoxy-9-(4-{[(1S,4S)-5-ethyl-2,5-diazabicyclo[2.2.1]hept-2-yl]methyl}benzyl)-8-(5-fluoropyridin-3-yl)-6-methyl-9H-purine] | 7 | potent inhibitory effect against TLR7
17 | CCOc1nc(C)c2nc(-c3cncc(F)c3)n(Cc3ccc(C4=CN5CCC4CC5)nc3C(F)(F)F)c2n1 [Example 360] | 1720 | 
18 | COc1nc(C)c2nc(-c3cncc(C#N)c3)n(Cc3ccc(C4CN5CCC4CC5)cc3F)c2n1 (single isomer, unassigned) [Example 402, 5-{9-[4-(1-azabicyclo[2.2.2]oct-3-yl)-2-fluorobenzyl]-2-methoxy-6-methyl-9H-purin-8-yl}pyridine-3-carbonitrile] | 132 | 
19 | COCCOc1nc(N)c2nc(-c3cncc(F)c3)n(Cc3cccc(CN(C)C)c3)c2n1 [Example 89] | 1400 | 
20 | COc1nc(C)c2nc(-c3cncc(F)c3)n(Cc3ccc(C4CN5CCC4CC5)cc3)c2n1 (centres unmarked) [Example 165, 9-[4-(1-Azabicyclo[2.2.2]oct-3-yl)benzyl]-8-(5-fluoropyridin-3-yl)-2-methoxy-6-methyl-9H-purine] | 16 | potent inhibitory effect against TLR7
21 | COc1nc(C)c2nc(-c3cncc(C#N)c3)n(Cc3ccc(C4CCNCC4)cc3F)c2n1 [Example 343] | 67 | potent inhibitory effect against TLR7
22 | CCOc1nc(C)c2nc(-c3cncc(F)c3)n(Cc3cnn(C4CCN(C)C4)c3)c2n1 (centres unmarked) [Example 164] | 170 | 
23 | CCOc1nc(N)c2nc(-c3cncc(F)c3)n(Cc3ccccc3)c2n1 [Example 21] | 700 | 

Row | Compound | IC50 [nM] | inhibitory effect against TLR7 in the test for evaluating inhibition of the activation of TLR7
24 | COc1nc(C)c2nc(-c3cncc(F)c3)n(Cc3ccc(C4CCN(C)CC4)cc3F)c2n1 [Example 282, 9-[2-fluoro-4-(1-methylpiperidin-4-yl)benzyl]-8-(5-fluoropyridin-3-yl)-2-methoxy-6-methyl-9H-purine] | 8 | potent inhibitory effect against TLR7
25 | CCN1C[C@@H]2C[C@H]1CN2Cc1ccc(Cn2c(-c3cncc(F)c3)nc3c(N)nc(OC)nc32)cc1 [Example 134] | 170 | 
26 | CCCCOc1nc(N)c2nc(-c3cncc(C)c3)n(Cc3ccccc3)c2n1 [Example 18] | 2700 | 
27 | COc1nc(C)c2nc(-c3cncc(F)c3)n(Cc3ccc(O[C@H]4CCN(C)C4)cc3F)c2n1 [Example 414, 9-(2-fluoro-4-{[(3S)-1-methylpyrrolidin-3-yl]oxy}benzyl)-8-(5-fluoropyridin-3-yl)-2-methoxy-6-methyl-9H-purine] | 16 | potent inhibitory effect against TLR7
28 | CCOc1nc(C)c2nc(-c3cncc(F)c3)n(Cc3cnn(CCN4CCCC4)c3)c2n1 [Example 246] | 300 | 
29 | CCOc1nc(C)c2nc(-c3cncc(F)c3)n(Cc3ccc(CN4C[C@@H]5C[C@H]4CN5)cc3)c2n1 [Example 123, 9-{4-[(1S,4S)-2,5-Diazabicyclo[2.2.1]hept-2-ylmethyl]benzyl}-2-ethoxy-8-(5-fluoropyridin-3-yl)-6-methyl-9H-purine] | 33 | potent inhibitory effect against TLR7
30 | CCOc1nc(N)c2nc(-c3cncc(F)c3)n(Cc3cccnc3)c2n1 [Example 22] | 2000 | 
31 | CCOc1nc(N)c2nc(-c3cncc(F)c3)n(Cc3ccc([C@@H]4CN5CCC4CC5)cc3)c2n1 [Example 175, 9-{4-[(3R)-1-Azabicyclo[2.2.2]oct-3-yl]benzyl}-2-ethoxy-8-(5-fluoropyridin-3-yl)-9H-purine-6-amine] | 94 | 
32 | CCOc1nc(C)c2nc(-c3cncc(F)c3)n(Cc3cnn(CC4CN(C)CCO4)c3)c2n1 (centres unmarked) [Example 273] | 200 | 
33 | CCOc1nc(C)c2nc(-c3cncc(F)c3)n(Cc3cnn(CCN4CCOCC4)c3)c2n1 [Example 248] | 248 | 
34 | COc1nc(C)c2nc(-c3cncnc3)n(Cc3ccc(OC4CC5CCC(C4)N5C)cc3F)c2n1 (stereo not drawn) [Example 294, 9-(2-fluoro-4-{[(3-endo)-8-methyl-8-azabicyclo[3.2.1]oct-3-yl]oxy}benzyl)-2-methoxy-6-methyl-8-(pyrimidin-5-yl)-9H-purine] | 19 | potent inhibitory effect against TLR7
35 | COc1nc(C)c2nc(-c3cncc(F)c3)n(Cc3cnn(CCN(C)C)c3)c2n1 [Example 250] | 200 | 
36 | CCCCOc1nc(N)c2nc(-c3ccccc3)n(Cc3cccnc3)c2n1 [Example 9] | 12800 | 
37 | CCOc1nc(C)c2nc(-c3cncc(F)c3)n(Cc3ccc(CN4CCCCC4)cc3)c2n1 [Example 264] | 63 | potent inhibitory effect against TLR7
38 | CCN1C[C@@H]2C[C@H]1CN2Cc1ccc(Cn2c(-c3cncc(F)c3)nc3c(C)nc(OC)nc32)cc1 [Example 132, 9-(4-{[(1S,4S)-5-ethyl-2,5-diazabicyclo[2.2.1]hept-2-yl]methyl}benzyl)-8-(5-fluoropyridin-3-yl)-2-methoxy-6-methyl-9H-purine] | 19 | potent inhibitory effect against TLR7
39 | COc1nc(C)c2nc(-c3cncc(F)c3)n(Cc3cccc(C4CN5CCC4CC5)c3)c2n1 (centres unmarked) [Example 386, 9-[3-(1-azabicyclo[2.2.2]oct-3-yl)benzyl]-8-(5-fluoropyridin-3-yl)-2-methoxy-6-methyl-9H-purine] | 13 | potent inhibitory effect against TLR7
40 | COCCOc1nc(N)c2nc(-c3cncc(F)c3)n(Cc3ccc(CN4CCOCC4)cc3)c2n1 [Example 88] | 900 | 
41 | CCCCOc1nc(N)c2nc(-c3cncc(OC)c3)n(Cc3ccccc3)c2n1 [Example 10] | 800 | 
42 | CCCCOc1nc(N)c2nc(-c3cncc(COC)c3)n(Cc3ccccc3)c2n1 [Example 19] | 1400 | 
43 | COc1cncc(-c2nc3c(C)nc(OC)nc3n2Cc2ccc(C3CN4CCC3CC4)cc2F)c1 (centres unmarked) [Example 302] | 67 | potent inhibitory effect against TLR7
44 | COc1nc(C)c2nc(-c3cncc(F)c3)n(Cc3ccc(O[C@H]4C[C@H]5CC[C@@H](C4)N5C)cc3F)c2n1 [Example 285, 9-(2-fluoro-4-{[(3-endo)-8-methyl-8-azabicyclo[3.2.1]oct-3-yl]oxy}benzyl)-8-(5-fluoropyridin-3-yl)-2-methoxy-6-methyl-9H-purine] | 2 | potent inhibitory effect against TLR7
45 | CCOc1nc(C)c2nc(-c3cncc(F)c3)n(Cc3ncc(C4CN5CCC4CC5)cc3F)c2n1 (centres unmarked) [Example 379] | 506 | 
46 | CCCCOc1nc(N)c2nc(-c3cccc(OC)c3)n(Cc3ccccc3)c2n1 [Example 12] | 9200 | 
